20 molecules from patent US11702422B2, “Imidazopyridazines as modulators of IL-17” (Janssen Pharmaceutica NV, priority 2020, dated 2023) can be followed below.

In experiment [1] the target is IL-17A(FLAG-Tagged): IL-17RA(His-Tagged) (Homo sapiens, UniProt Q16552, K93Q). The experiment can be described thus: IL-17A(FLAG-Tagged): IL-17RA(His-Tagged) Binding Disruption Eu-HTRF Assay. As to conditions: IL-17A/IL-17RA binding disruption, simple average if tested more than once. Put shortly:
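IC50 comes from a one-site competition fit of the HTRF 665/620 nm ratio. Compound dilutions (2-fold, 22 points) were held 1 h rt with FLAG-tagged IL-17A dimer, then His-tagged IL-17RA plus Eu-cryptate anti-FLAG and D2 anti-His antibodies were added for 2 h rt.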
Background: In TR-FRET formats the signal depends on donor and acceptor labels being close together.

Experiment [2] relates to IL-17A-induced G-CSF production in human normal keratinocyte (NHK). Description: NHK Assay: IL-17A-induced G-CSF production in human normal keratinocytes. Format: cell-based. As to conditions: Homo sapiens, Keratinocyte, 24 h, adult normal human keratinocytes, IL-17A 5 ng/mL, simple average if tested more than once. The method in brief: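 Inhibition of IL-17A-driven G-CSF release is measured in adult keratinocytes stimulated for 24 h at 37° C with 5 ng/mL human IL-17A that had been pre-incubated with compound for 1 h. IC50 comes from HTRF G-CSF levels; cell viability is checked in parallel by luminescent ATP assay.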

The IC50 is the concentration needed to halve the response being measured. Lower therefore signals higher potency.

SMILES strings stand for the structures.

UniProt Q16552, sequence (Q16552 with tags, fused parts or gaps K93Q): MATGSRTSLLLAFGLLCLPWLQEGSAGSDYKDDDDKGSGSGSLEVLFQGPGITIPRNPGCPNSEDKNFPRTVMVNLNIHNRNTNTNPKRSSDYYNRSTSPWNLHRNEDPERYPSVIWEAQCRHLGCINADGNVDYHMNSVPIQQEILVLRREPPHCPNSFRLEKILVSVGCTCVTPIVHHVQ

As for `CC(C)n1nccc1C(=O)N[C@H](c1cn2ncc([C@H](NC(=O)CCCF)C3CC3)cc2n1)C1CCC(F)(F)CC1` [Example 251, N—((S)-(7-((R)-Cyclopropyl(4-fluorobutanamido)methyl)imidazo[1,2-b]pyridazin-2-yl)(4,4-difluorocyclohexyl)methyl)-1-isopropyl-1H-pyrazole-5-carboxamide], the values for the IC50 in experiment [1] and in experiment [2] were 200 nM and 770 nM, respectively.
The like results for `Cc1nonc1C(=O)N[C@H](c1cn2ncc([C@H](NC(=O)CCCF)C3CC3)cc2n1)C1CCC(F)(F)CC1` [Example 252, N—((S)-(7-((R)-Cyclopropyl(4-fluorobutanamido)methyl)imidazo[1,2-b]pyridazin-2-yl)(4,4-difluorocyclohexyl)methyl)-4-methyl-1,2,5-oxadiazole-3-carboxamide] were, in that order, 640 nM and 7700 nM.
For `Cc1nonc1C(=O)N[C@H](c1cn2ncc([C@H](NC(=O)CC(C)(C)C(F)(F)F)C3CC3)cc2n1)C1CCC(F)(F)CC1` [Example 253, N—((S)-(7-((R)-Cyclopropyl(4,4,4-trifluoro-3,3-dimethylbutanamido)methyl)imidazo[1,2-b]pyridazin-2-yl)(4,4-difluorocyclohexyl)methyl)-4-methyl-1,2,5-oxadiazole-3-carboxamide], in that order: 220 nM and 760 nM.
In the case of `CC(C)n1nccc1C(=O)N[C@H](c1cn2ncc([C@H](NC(=O)CC(C)(C)C(F)(F)F)C3CC3)cc2n1)C1CCC(F)(F)CC1` [Example 254, N—((S)-(7-((R)-Cyclopropyl(4,4,4-trifluoro-3,3-dimethylbutanamido)methyl)imidazo[1,2-b]pyridazin-2-yl)(4,4-difluorocyclohexyl)methyl)-1-isopropyl-1H-pyrazole-5-carboxamide], the values for the IC50 in experiment [1] and in experiment [2] were 290 nM and 200 nM, respectively.
For `Cc1nonc1C(=O)N[C@H](c1cn2ncc([C@H](NC(=O)CCC(C)(F)F)C3CC3)cc2n1)C1CCC(F)(F)CC1` [Example 259, N—((S)-(7-((R)-Cyclopropyl(4,4-difluoropentanamido)methyl)imidazo[1,2-b]pyridazin-2-yl)(4,4-difluorocyclohexyl)methyl)-4-methyl-1,2,5-oxadiazole-3-carboxamide], in that order: 120 nM and 620 nM.
For `CC(C)n1nccc1C(=O)N[C@H](c1cn2ncc([C@H](NC(=O)CCC(C)(F)F)C3CC3)cc2n1)C1CCC(F)(F)CC1` [Example 260, N—((S)-(7-((R)-Cyclopropyl(4,4-difluoropentanamido)methyl)imidazo[1,2-b]pyridazin-2-yl)(4,4-difluorocyclohexyl)methyl)-1-isopropyl-1H-pyrazole-5-carboxamide], the IC50 is 120 nM in experiment [1] and 180 nM in experiment [2].
The like results for `CC(C)n1nccc1C(=O)N[C@H](c1cn2ncc([C@H](NC(=O)CC(C)(F)F)C3CC3)cc2n1)C1CCC(F)(F)CC1` [Example 261, N—((S)-(7-((R)-Cyclopropyl(3,3-difluorobutanamido)methyl)imidazo[1,2-b]pyridazin-2-yl)(4,4-difluorocyclohexyl)methyl)-1-isopropyl-1H-pyrazole-5-carboxamide] were, in that order, 130 nM and 430 nM.
`CC(CC(=O)N[C@@H](c1cnn2cc([C@@H](NC(=O)c3ccnn3C(C)C)C3CCC(F)(F)CC3)nc2c1)C1CC1)C(F)F` (stereo partly drawn) [Example 262, N-((1S)-(7-((1R)-Cyclopropyl(4,4-difluoro-3-methylbutanamido)methyl)imidazo[1,2-b]pyridazin-2-yl)(4,4-difluorocyclohexyl)methyl)-1-isopropyl-1H-pyrazole-5-carboxamide]: the IC50 in experiment [1] and in experiment [2] was 120 nM each time.
As for `Cc1nonc1C(=O)N[C@H](c1cn2ncc([C@H](NC(=O)CC(C)(F)F)C3CC3)cc2n1)C1CCC(F)(F)CC1` [Example 263, N—((S)-(7-((R)-Cyclopropyl(3,3-difluorobutanamido)methyl)imidazo[1,2-b]pyridazin-2-yl)(4,4-difluorocyclohexyl)methyl)-4-methyl-1,2,5-oxadiazole-3-carboxamide], the IC50 in experiment [1] was found to be 210 nM; in experiment [2] it was 1800 nM.
For `CC(C)n1nccc1C(=O)N[C@H](c1cn2ncc([C@H](NC(=O)C34CC(F)(C3)C4)C3CC3)cc2n1)C1CCC(F)(F)CC1` [Example 268, N—((S)-(7-((R)-Cyclopropyl(3-fluorobicyclo[1.1.1]pentane-1-carboxamido)methyl)imidazo[1,2-b]pyridazin-2-yl)(4,4-difluorocyclohexyl)methyl)-1-isopropyl-1H-pyrazole-5-carboxamide], in that order: 750 nM and 3000 nM.
For `Cc1nonc1C(=O)N[C@H](c1cn2ncc([C@H](NC(=O)C34CC(F)(C3)C4)C3CC3)cc2n1)C1CCC(F)(F)CC1` [Example 269, N—((S)-(7-((R)-Cyclopropyl(3-fluorobicyclo[1.1.1]pentane-1-carboxamido)methyl)imidazo[1,2-b]pyridazin-2-yl)(4,4-difluorocyclohexyl)methyl)-4-methyl-1,2,5-oxadiazole-3-carboxamide], in that order: 2000 nM and 20000 nM.
Take `Cc1nonc1C(=O)N[C@H](c1cn2ncc([C@H](NC(=O)CC34CC(F)(C3)C4)C3CC3)cc2n1)C1CCC(F)(F)CC1` [Example 272, N—((S)-(7-((R)-Cyclopropyl(2-(3-fluorobicyclo[1.1.1]pentan-1-yl)acetamido)methyl)imidazo[1,2-b]pyridazin-2-yl)(4,4-difluorocyclohexyl)methyl)-4-methyl-1,2,5-oxadiazole-3-carboxamide]: the IC50 in experiment [1] came out at 86 nM; in experiment [2] it was 290 nM.
For the molecule `CC(C)n1nccc1C(=O)N[C@H](c1cn2ncc([C@H](NC(=O)CC34CC(F)(C3)C4)C3CC3)cc2n1)C1CCC(F)(F)CC1` [Example 273, N—((S)-(7-((R)-Cyclopropyl(2-(3-fluorobicyclo[1.1.1]pentan-1-yl)acetamido)methyl)imidazo[1,2-b]pyridazin-2-yl)(4,4-difluorocyclohexyl)methyl)-1-isopropyl-1H-pyrazole-5-carboxamide], the IC50 worked out at 160 nM in experiment [1] and 71 nM in experiment [2].
The like results for `CC(C)n1nccc1C(=O)N[C@H](c1cn2ncc([C@H](NC(=O)COC(F)F)C3CC3)cc2n1)C1CCC(F)(F)CC1` [Example 274, N—((S)-(7-((R)-Cyclopropyl(2-(difluoromethoxy)acetamido)methyl)imidazo[1,2-b]pyridazin-2-yl)(4,4-difluorocyclohexyl)methyl)-1-isopropyl-1H-pyrazole-5-carboxamide] were, in that order, 330 nM and 950 nM.
`CC(C)n1nccc1C(=O)N[C@H](c1cn2ncc([C@H](NC(=O)CC3CCCC3(F)F)C3CC3)cc2n1)C1CCC(F)(F)CC1` (stereo partly drawn) [Example 275, N-((1S)-(7-((1R)-Cyclopropyl(2-(2,2-difluorocyclopentyl)acetamido)methyl)imidazo[1,2-b]pyridazin-2-yl)(4,4-difluorocyclohexyl)methyl)-1-isopropyl-1H-pyrazole-5-carboxamide]: the figures for the IC50 in experiment [1] and in experiment [2] were 170 nM and 150 nM, respectively.
Consider `CC(C)n1nccc1C(=O)N[C@H](c1cn2ncc([C@H](NC(=O)COC(F)(F)F)C3CC3)cc2n1)C1CCC(F)(F)CC1` [Example 276, N—((S)-(7-((R)-Cyclopropyl(2-(trifluoromethoxy)acetamido)methyl)imidazo[1,2-b]pyridazin-2-yl)(4,4-difluorocyclohexyl)methyl)-1-isopropyl-1H-pyrazole-5-carboxamide], for which the figures for the IC50 in experiment [1] and in experiment [2] were 150 nM and 140 nM, respectively.
With `Cc1nonc1C(=O)N[C@H](c1cn2ncc([C@H](NC(=O)COC(F)(F)F)C3CC3)cc2n1)C1CCC(F)(F)CC1` [Example 277, N—((S)-(7-((R)-Cyclopropyl(2-(trifluoromethoxy)acetamido)methyl)imidazo[1,2-b]pyridazin-2-yl)(4,4-difluorocyclohexyl)methyl)-4-methyl-1,2,5-oxadiazole-3-carboxamide], the IC50 is 180 nM in experiment [1] and 690 nM in experiment [2].
For the molecule `Cc1nonc1C(=O)N[C@H](c1cn2ncc([C@H](NC(=O)COC(F)F)C3CC3)cc2n1)C1CCC(F)(F)CC1` [Example 278, N—((S)-(7-((R)-Cyclopropyl(2-(difluoromethoxy)acetamido)methyl)imidazo[1,2-b]pyridazin-2-yl)(4,4-difluorocyclohexyl)methyl)-4-methyl-1,2,5-oxadiazole-3-carboxamide], the IC50 in experiment [1] is 1100 nM; in experiment [2], 2500 nM.
The like results for `CC(C)c1nonc1C(=O)N[C@H](c1cn2ncc([C@H](NC(=O)CC34CC(F)(C3)C4)C3CC3)cc2n1)C1CCC(F)(F)CC1` [Example 279, N—((S)-(7-((R)-Cyclopropyl(2-(3-fluorobicyclo[1.1.1]pentan-1-yl)acetamido)methyl)imidazo[1,2-b]pyridazin-2-yl)(4,4-difluorocyclohexyl)methyl)-4-isopropyl-1,2,5-oxadiazole-3-carboxamide] were, in that order, 36 nM and 64 nM.
The like results for `CC(C)n1nccc1C(=O)N[C@H](c1cn2ncc([C@H](NC(=O)CCC(F)F)C3CC3)cc2n1)C1CCC(F)(F)CC1` [Example 280, N—((S)-(7-((R)-Cyclopropyl(4,4-difluorobutanamido)methyl)imidazo[1,2-b]pyridazin-2-yl)(4,4-difluorocyclohexyl)methyl)-1-isopropyl-1H-pyrazole-5-carboxamide] were, in that order, 54 nM and 120 nM.
